Experimental data from patent publication US20230225991A1, “COMPOUNDS FOR USE IN THE TREATMENT OF ACUTE INTERMITTENT PORPHYRIA” (VESTLANDETS INNOVASJONSSELSKAP AS, priority 2019, published 2023).

Molecular target: T1, WT-HMBS (Homo sapiens, UniProt P08397)
T1 construct: Full-length HMBS was cloned into pET-28a(+)-TEV vector and transformed into BL21 (DE3) cells for expression; 6xHis (N, cleaved yes); TEV protease cleavage site (N, cleaved yes); made in house; host or cells: E. coli BL21 (DE3)
T1 sequence (P08397 1-361): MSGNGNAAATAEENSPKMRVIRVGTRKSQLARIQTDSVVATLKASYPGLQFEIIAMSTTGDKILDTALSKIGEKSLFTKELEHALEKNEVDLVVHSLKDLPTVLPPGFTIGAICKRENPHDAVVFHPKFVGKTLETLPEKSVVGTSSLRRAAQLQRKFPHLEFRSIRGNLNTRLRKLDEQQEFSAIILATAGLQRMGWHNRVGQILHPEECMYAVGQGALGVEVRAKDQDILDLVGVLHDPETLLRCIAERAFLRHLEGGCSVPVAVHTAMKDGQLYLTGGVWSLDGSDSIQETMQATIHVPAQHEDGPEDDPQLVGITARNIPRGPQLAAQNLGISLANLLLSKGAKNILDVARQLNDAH
Test: Surface plasmon resonance (SPR), HMBS immobilized to sensor chip
Settings: sigmoidal fitting of binding isotherm, 25° C., 0-200 μM compound; read-out: S0.5 (concentration for half-maximal binding), SPR
Description: Surface plasmon resonance experiments for the estimation of the concentration of compound at half-maximal binding (S0.5) were performed using a Biacore T200 (GE Healthcare) instrument at 25° C. 150 μg/ml WT-HMBS in 10 mM sodium acetate pH 4.5 was immobilized onto a CM5-S sensor chip through amine-coupling chemistry and PBS containing 0.05% surfactant P20 as running buffer, reaching immobilization levels ˜15,000. The baseline was equilibrated for 1-2 h, before the compounds were assayed in a concentration-dependent manner (0-200 μM), using running buffer with 5% DMSO and 30 μl/min flow rate. Contact and dissociation time was 60 s, with a final wash after 50% DMSO injection. Blank immobilization, solvent correction and negative control (assay buffer) were included for the analysis of the sensorgrams using the Biacore T200 Evaluation software v2.0. The allosteric sigmoidal curve fitting was performed using GraphPad Prism.
The binding of compounds BG-1 and BG-2 to HMBS was analyzed by surface plasmon resonance (SPR) and response units from concentration-dependent steady state measurements were analyzed assuming a 1:1 binding model. […] The interaction between compound BG-1 and HMBS was therefore further studied with Octet RED96 system with super streptavidin (SSA) biosensors. […]

Kd: 63 ± 3 µM
Compound: O=C(c1ccccc1)c1ccc(Cl)c([N+](=O)[O-])c1 [BG-2]
